In the NIST ThermoML archive (doi:10.1021/acs.jced.8b00037):

Assay: molar heat capacity at saturation pressure
Conditions: Liquid, Vacuum adiabatic calorimetry

COC [dimethyl ether]
Conditions | molar heat capacity [J/K/mol]
133.47 K | 99.41
136.11 K | 98.99
138.75 K | 99.09
141.37 K | 98.75
143.97 K | 98.64
146.56 K | 98.99
149.14 K | 99.23
151.7 K | 98.99
154.26 K | 98.77
156.8 K | 98.65
159.33 K | 98.43
161.84 K | 98.67
164.35 K | 98.6
166.84 K | 98.46
169.32 K | 98.32
171.79 K | 98.39
174.26 K | 98.44
176.71 K | 98.47
179.15 K | 98.73
181.58 K | 98.78
184 K | 98.54
186.41 K | 98.8
188.82 K | 98.98
191.21 K | 98.9
193.6 K | 99.11
195.98 K | 98.99
198.36 K | 99.02
200.73 K | 99.09
203.08 K | 99.08
205.44 K | 99.32
207.79 K | 99.89
210.13 K | 100.15
212.46 K | 99.96
214.79 K | 100.15
217.12 K | 100.26
219.43 K | 100.09
221.74 K | 100.12
224.04 K | 100.21
226.34 K | 100.65
228.64 K | 101.1
230.92 K | 101.1
233.21 K | 101.41
235.49 K | 101.75
237.76 K | 101.68
240.03 K | 101.94
242.31 K | 102.15
244.57 K | 102.6
246.84 K | 102.48
249.11 K | 103.29
251.38 K | 102.81
253.64 K | 103
255.9 K | 103.44
258.16 K | 103.81
260.42 K | 104.08
262.68 K | 104.75
264.94 K | 105.51
267.2 K | 105.91
269.47 K | 106.42
271.72 K | 106.14
273.98 K | 106.27
276.24 K | 107.11
278.5 K | 108
280.77 K | 108.08
283.02 K | 108.35
285.29 K | 108.89
287.55 K | 109.42
289.82 K | 109.46
292.08 K | 110
294.36 K | 110.71
296.63 K | 110.49
298.9 K | 111.38
301.19 K | 111.57
303.45 K | 112.35
305.74 K | 112.73
308.02 K | 113.5
310.3 K | 114.89
312.58 K | 115.6
314.87 K | 116.12
317.16 K | 116.12
319.44 K | 117.62
323.96 K | 119.09
326.26 K | 120.03
328.57 K | 120.51
330.88 K | 121.43
333.2 K | 121.96
335.54 K | 122.78
337.89 K | 122.8
340.24 K | 124.08
342.62 K | 124.9
345 K | 125.19
